Results published in paper PMC7024302, “Ultrashort Cationic Lipopeptides–Effect of N-Terminal Amino Acid and Fatty Acid Type on Antimicrobial Activity and Hemolysis” (Molecules, 2020).
Converted amounts (≈) assume the structure as drawn. Residues, ends and D or L forms follow the SMILES beside them.

Columns and labels:
[1] = Determination of peptide hydrophobicity with RP-HPLC (adjusted retention time); format: physicochemical; conditions: for tR’: Table 3, adjusted retention time as hydrophobicity; for tR’ / Adjusted retention time: RP-HPLC C18, linear 10–55% acetonitrile over 60 min; for tR’ / tR’ (adjusted retention time) / Adjusted retention time: 0.1% TFA, 25.0 °C, UV 214 nm, triplicate; for tR’ (adjusted retention time): Table 1 and b9, measure of hydrophobicity, RP-HPLC, Phenomenex Luna C18(2) 3.0 × 100 mm, 5 µm, linear 10–55% acetonitrile in water over 60 min, 0.5 mL/min, peptide 1 g/L; for Adjusted retention time: Table 2, nC = carbon atoms in fatty acid chain; for ∆tR: tR’ of the lipopeptide minus tR’ of C10-RR-NH2 or C12-RR-NH2, same RP-HPLC conditions
Method: To determine peptide hydrophobicity, the Waters Alliance e2695 system with a Waters 2998 PDA Detector (software-Empower®3) was used. All analyses were carried out on a Phenomenex Luna C18(2) column (3.0 × 100 mm, 5 µm particle size, 100 Å pore size). The peptides were dissolved in water (0.1% TFA, v/v) to obtain a concentration of 1 g/L. UV detection at 214 nm was used, and aliquots (10 µL) were eluted with a linear 10–55% acetonitrile gradient in deionized water over 60 min at 25.0 ± 0.1 °C. The mobile phase flow rate was 0.5 mL/min. Both eluents contained 0.1% (v/v) of TFA. Each peptide sample was analyzed in triplicate.

S. aureus ATCC 25923 = format: cell-based, Staphylococcus aureus; conditions: ATCC 25923, 18 h
Source text: (§1) The Acinetobacter baumannii ATCC BAA-1605, Candida albicans ATCC 10231, Enterococcus faecium ATCC 700221, Klebsiella aerogenes ATCC 13048 (previously known as Enterobacter aerogenes), Klebsiella pneumoniae ATCC 700603, Pseudomonas aeruginosa ATCC 9027, Staphylococcus aureus ATCC 25923 and MRSA ATCC 33591, were acquired from the American Type Culture Collection (ATCC). Before running the tests, beads with cryo-protected microorganisms were transferred into fresh MHB (BioMaxima, Lublin, Poland) for bacteria or RPMI-1640 for fungi and incubated for 24 h at 37 °C. Then, the culture was seeded on the Mueller-Hinton agar (MHA) plates (BioMaxima, Lublin, Poland) for bacteria or Sabouraud dextrose agar (SDA) plates (BioMaxima, Lublin, Poland) for fungi and incubated as just mentioned. Cell densities for all assays were adjusted spectrophotometrically (Multiskan™ GO Microplate Spectrophotometer, Thermo Fisher Scientific, Vantaa, Finland) at 600 nm for bacteria and at 530 nm for fungi.
(§2) The MICs were determined by broth microdilution method according to the Clinical and Laboratory Standard Institute guidelines. For this purpose initial inoculums of bacteria (5 × 10^5 CFU/mL) in MHB (BioMaxima, Lublin, Poland) and fungi (2 × 10^3 CFU/mL) in RPMI-1640 with 2% D-glucose (Merck, Darmstadt, Germany) prepared with MOPS (pH 7.0 ± 0.1 at 25 °C; Merck, Darmstadt, Germany) were exposed to the ranging concentration of lipopeptides (0.5–256 µg/mL) and incubated at 37 °C for 18 h and 24 h respectively. The experiments were conducted on 96-well microtiter polystyrene plates (Kartell, Italy). The MIC was taken as the lowest peptide concentration at which a noticeable growth of microorganisms was inhibited. All experiments were conducted in triplicate.

[2] = test system: S. aureus ATCC 33591 (MRSA); format: cell-based, Staphylococcus aureus; conditions: ATCC 33591, 18 h
Source text: as §1, §2

P. aeruginosa ATCC 9027 = format: cell-based, Pseudomonas aeruginosa; conditions: ATCC 9027, 18 h
Source text: as §1, §2

C. albicans ATCC 10231 = format: cell-based, Candida albicans; conditions: ATCC 10231, 24 h, pH 7
Source text: as §1, §2

[3] = test system: human red blood cells (hRBCs); format: cell-based; conditions: red cells of human, 1 h
Method: The hemolysis assay was performed as described earlier according to the method of Avrahami and Shai. Fresh human red blood cells (hRBCs) with anticoagulant (EDTA) were rinsed three times with a PBS (Merck, Darmstadt, Germany) by centrifugation at 800× g for 10 min and resuspended in PBS. Lipopeptides were serially diluted on 96-well microtiter polystyrene plate and hRBCs were added to reach final volume of 100 µL. Peptide concentration ranged between 0.5 and 256 µg/mL and final hRBCs concentration was 4% (v/v). Controls for zero hemolysis (blank) and 100% hemolysis consisted of hRBCs suspended in PBS and 1% of Triton-X 100 (Merck, Darmstadt, Germany), respectively. The plate was incubated for 1 h at 37 °C and then centrifuged (800× g, 10 min, 4 °C). Subsequently, supernatant was […] to new microtiter plates and absorbance at 540 nm were measured. All experiments were conducted in triplicate. Protocol of the study received approval from the local Bioethics Committee at the Medical University of Gdańsk (NKBBN/262/2019).

E. faecium ATCC 700221 = format: cell-based, Enterococcus faecium; conditions: ATCC 700221, 18 h
Source text: as §1, §2

[4] = test system: K. pneumoniae ATCC 700603; format: cell-based, Klebsiella pneumoniae; conditions: ATCC 700603, 18 h
Source text: as §1, §2

[5] = test system: A. baumannii ATCC BAA-1605; format: cell-based, Acinetobacter baumannii; conditions: ATCC BAA-1605, 18 h
Source text: as §1, §2

K. aerogenes ATCC 13048 = format: cell-based, Klebsiella aerogenes; conditions: ATCC 13048, 18 h
Source text: as §1, §2

Row | SMILES | tR’ [1] | tR’ (adjusted retention time) [1] | MIC SA (S. aureus ATCC 25923) | MIC PA (P. aeruginosa ATCC 9027) | MIC CA (C. albicans ATCC 10231) | HC50 [3] | other results
1 | CCCCCCCC(=O)N[C@@H](CCCNC(=N)N)C(=O)N[C@@H](CCCNC(=N)N)C(N)=O [compound 1, C8-RR-NH2, reference compound] (HELM PEPTIDE1{[CCCCCCCC(=O)[*:2]].R.R.[am]}$$$$V2.0) | 14.46 min | – | – | – | – | – | –
2 | CCCCCCCCCC(=O)N[C@@H](CCCNC(=N)N)C(=O)N[C@@H](CCCNC(=N)N)C(N)=O [compound 2, C10-RR-NH2, reference compound] (HELM PEPTIDE1{[CCCCCCCCCC(=O)[*:2]].R.R.[am]}$$$$V2.0) | 24.30 min | 24.30 min | – | – | – | – | –
3 | CCCCCCCCCCCC(=O)N[C@@H](CCCNC(=N)N)C(=O)N[C@@H](CCCNC(=N)N)C(N)=O [compound 3, C12-RR-NH2, reference compound] (HELM PEPTIDE1{[CCCCCCCCCCCC(=O)[*:2]].R.R.[am]}$$$$V2.0) | 32.58 min | 32.58 min | 32 µg/mL (≈ 62.5 µM) | 128 µg/mL (≈ 250 µM) | 64 µg/mL (≈ 125 µM) | >256 µg/mL | MIC S [2]: 32 µg/mL (≈ 62.5 µM); MIC E1 (E. faecium ATCC 700221): 32 µg/mL (≈ 62.5 µM); MIC K [4]: >256 (-) µg/mL; MIC A [5]: 256 µg/mL (≈ 500 µM); MIC E2 (K. aerogenes ATCC 13048): >256 (-) µg/mL
4 | CCCCCCCCCCCCCC(=O)N[C@@H](CCCNC(=N)N)C(=O)N[C@@H](CCCNC(=N)N)C(N)=O [compound 4, C14-RR-NH2, reference compound] (HELM PEPTIDE1{[CCCCCCCCCCCCCC(=O)[*:2]].R.R.[am]}$$$$V2.0) | 39.79 min | – | 8 µg/mL (≈ 14.8 µM) | 32 µg/mL (≈ 59.3 µM) | 8 µg/mL (≈ 14.8 µM) | 68.43 (±1.41) µg/mL | MIC S [2]: 8 µg/mL (≈ 14.8 µM); MIC E1 (E. faecium ATCC 700221): 8 µg/mL (≈ 14.8 µM); MIC K [4]: 256 µg/mL (≈ 474 µM); MIC A [5]: 64 µg/mL (≈ 119 µM); MIC E2 (K. aerogenes ATCC 13048): 256 µg/mL (≈ 474 µM)
5 | CCCCCCCCCCCCCC(=O)N[C@@H](CC(=O)O)C(=O)N[C@@H](CCCNC(=N)N)C(=O)N[C@@H](CCCNC(=N)N)C(N)=O [compound 18, C14-DRR-NH2] (HELM PEPTIDE1{[CCCCCCCCCCCCCC(=O)[*:2]].D.R.R.[am]}$$$$V2.0) | 40.25 min | – | 64 µg/mL (≈ 97.7 µM) | 128 µg/mL (≈ 195 µM) | 32 µg/mL (≈ 48.9 µM) | 49.95 (±1.00) µg/mL | –
6 | CCCCCCCCCCCCCC(=O)N[C@@H](CCC(=O)O)C(=O)N[C@@H](CCCNC(=N)N)C(=O)N[C@@H](CCCNC(=N)N)C(N)=O [compound 22, C14-ERR-NH2] (HELM PEPTIDE1{[CCCCCCCCCCCCCC(=O)[*:2]].E.R.R.[am]}$$$$V2.0) | 40.17 min | – | 64 µg/mL (≈ 95.7 µM) | 128 µg/mL (≈ 191 µM) | 32 µg/mL (≈ 47.8 µM) | 59.51 (±4.00) µg/mL | –
7 | CCCCCCCCCCCC(=O)NCC(=O)N[C@@H](CCCNC(=N)N)C(=O)N[C@@H](CCCNC(=N)N)C(N)=O [compound 29, C12-GRR-NH2] | 33.20 min | – | 32 µg/mL (≈ 56.3 µM) | 128 µg/mL (≈ 225 µM) | 64 µg/mL (≈ 113 µM) | >256 µg/mL | –
8 | CCCCCCCC(=O)N[C@@H](CCCC)C(=O)N[C@@H](CCCNC(=N)N)C(=O)N[C@@H](CCCNC(=N)N)C(N)=O [compound 63, C8-NleRR-NH2] (HELM PEPTIDE1{[CCCCCCCC(=O)[*:2]].[Nle].R.R.[am]}$$$$V2.0) | – | – | – | – | – | – | Adjusted retention time [1]: 25.429 min
9 | CCCCCCCCCC(=O)N[C@@H](CCCC)C(=O)N[C@@H](CCCNC(=N)N)C(=O)N[C@@H](CCCNC(=N)N)C(N)=O [compound 64, C10-NleRR-NH2] (HELM PEPTIDE1{[CCCCCCCCCC(=O)[*:2]].[Nle].R.R.[am]}$$$$V2.0) | – | – | 32 µg/mL (≈ 53.6 µM) | 64 µg/mL (≈ 107 µM) | 64 µg/mL (≈ 107 µM) | >256 µg/mL | Adjusted retention time [1]: 33.155 min
10 | CCCCCCCCCCCC(=O)N1CCC[C@H]1C(=O)N[C@@H](CCCNC(=N)N)C(=O)N[C@@H](CCCNC(=N)N)C(N)=O [compound 73, C12-PRR-NH2] | 35.82 min | – | 32 µg/mL (≈ 52.6 µM) | 64 µg/mL (≈ 105 µM) | 64 µg/mL (≈ 105 µM) | >256 µg/mL | –
11 | CCCCCCCCCCCC(=O)N[C@H](C(=O)N[C@@H](CCCNC(=N)N)C(=O)N[C@@H](CCCNC(=N)N)C(N)=O)[C@@H](C)O [compound 89, C12-TRR-NH2] (HELM PEPTIDE1{[CCCCCCCCCCCC(=O)[*:2]].T.R.R.[am]}$$$$V2.0) | 33.82 min | – | 32 µg/mL (≈ 52.2 µM) | 128 µg/mL (≈ 209 µM) | 64 µg/mL (≈ 104 µM) | >256 µg/mL | –
12 | CCCCCCCCC(CCCCCC)C(=O)N[C@@H](CCCNC(=N)N)C(=O)N[C@@H](CCCNC(=N)N)C(N)=O (stereo partly drawn) [compound 105, C10(6)-RR-NH2] | – | – | 4 µg/mL (≈ 7.04 µM) | 8 µg/mL (≈ 14.1 µM) | 16 µg/mL (≈ 28.2 µM) | 200.25 (±16.07) µg/mL | MIC S [2]: 4 µg/mL (≈ 7.04 µM); MIC E1 (E. faecium ATCC 700221): 8 µg/mL (≈ 14.1 µM); MIC K [4]: >256 (-) µg/mL; MIC A [5]: 256 µg/mL (≈ 451 µM); MIC E2 (K. aerogenes ATCC 13048): >256 (-) µg/mL
13 | CCCCCCCCCC(=O)N[C@@H](CCCNC(=N)N)C(=O)N[C@@H](Cc1ccccc1)C(=O)N[C@@H](CCCNC(=N)N)C(N)=O [compound 106, C10-RFR-NH2] (HELM PEPTIDE1{[CCCCCCCCCC(=O)[*:2]].R.F.R.[am]}$$$$V2.0) | – | 31.44 min | – | – | – | – | ∆tR [1]: 7.14 min
14 | CCCCCCCCCCCC(=O)N[C@@H](CCCNC(=N)N)C(=O)N[C@@H](Cc1ccccc1)C(=O)N[C@@H](CCCNC(=N)N)C(N)=O [compound 107, C12-RFR-NH2] (HELM PEPTIDE1{[CCCCCCCCCCCC(=O)[*:2]].R.F.R.[am]}$$$$V2.0) | – | 38.67 min | – | – | – | – | ∆tR [1]: 6.09 min
15 | CCCCCCCCCC(=O)N[C@@H](CCCNC(=N)N)C(=O)N[C@@H](CCCNC(=N)N)C(=O)N[C@@H](Cc1ccccc1)C(N)=O [compound 108, C10-RRF-NH2] (HELM PEPTIDE1{[CCCCCCCCCC(=O)[*:2]].R.R.F.[am]}$$$$V2.0) | – | 31.07 min | – | – | – | – | ∆tR [1]: 6.77 min
16 | CCCCCCCCCCCC(=O)N[C@@H](CCCNC(=N)N)C(=O)N[C@@H](CCCNC(=N)N)C(=O)N[C@@H](Cc1ccccc1)C(N)=O [compound 109, C12-RRF-NH2] (HELM PEPTIDE1{[CCCCCCCCCCCC(=O)[*:2]].R.R.F.[am]}$$$$V2.0) | – | 38.02 min | – | – | – | – | ∆tR [1]: 5.44 min
